Entries after “also recorded” stand apart in the source; their conditions may differ.

The values that follow come from PMC12392461, “Beyond Estrogenicity: A Comparative Assessment of Bisphenol A and Its Alternatives in In Vitro Assays Questions Safety of Replacements” (Environmental Science & Technology, 2025).

Series [1] is described as follows: Stability in PBS (pH 7.4, 37 °C, 48 h). As for the experimental part:
We tested the stability of all BPA alternatives and BPA in 0.1mM PBS (pH 7.4) for 48h at 37° C except for TMCD prior to the bioassay experiments. The experiment was performed as follows: 500 µL of a 2 mg/L solution of the chemical in PBS was aliquoted into 3 HPLC vials (n=3) and incubated for 48 h at 37 °C. The 2 mg/L solution was prepared by diluting the respective 10 g/L stock solution in a 10 mL glass crimp vial with an aluminum cap. For HPLC analysis, 500 µL acetonitrile was added prior to injection.
We have not tested stability of TMCD in aqueous media because we lacked a suitable […]
Figure S2: Detection of Bisphenol alternatives after 48 h incubation in 0.1mM PBS pH 7.4. Each data point represents the mean percentage with error bars indicating standard error of mean (SEM) of n=3 replicates.
S2: Cell culture and bioassays
S2.1: Cell Culturing Conditions
All suppliers and sources are given in detail in SI-Excel S3. The bioassay media for the different assays were prepared as follows: Assay medium for ER alpha-UAS-bla GripTite (ERα) and PPAR gamma-UAS-bla 293H (PPARγ) was prepared with 98% Opti-MEM, supplemented with 2% charcoal-stripped FBS, and 100 U/mL penicillin-streptomycin. MitoOxTox and AhR assay medium was comprised of 90% DMEM with GlutaMAX, supplemented with 10% FBS, and 100 U/mL penicillin-streptomycin. Neurotoxicity assay medium consisted of the neurobasal […]

The conditions of series [2]: 15 min.
Method: The mixtures were adjusted to a final volume of 100 μL with acetonitrile (ACN). The reaction mix was incubated for 15 min at 30 °C and 1000 rpm on a Bioshake iQ orbital shaker from QInstruments (Jena, Germany). Additionally, a mixture without test compounds was prepared as a control. Subsequently, 10 μL of the reaction mixture was transferred into a conical dosing vial and evaporated under a nitrogen flow.
For chemical analysis, 10 μL of the reaction mixture was concentrated under vacuum (CentriVap, Labconco, Kansas City, MO, USA), diluted to 1 mg/L in ACN or ethyl acetate. The chemical analysis of the reaction mixtures was performed using liquid chromatography (LC) and gas chromatography (GC) coupled with various detection techniques, preferably Multiple Reaction Monitoring (MRM). Data acquisition and processing were carried out using the software MassHunter. Quantification was based on external calibrations.
The Cparent-Ratio quantifies the extent of oxidation of the parent compound after the abiotic CYP reaction. It was calculated as the ratio of the parent compound concentration after oxidation (C parent, after oxidation) to its concentration before oxidation (C parent, before oxidation) as shown in eq . […] 8 Cparent‐Ratio=Cparent,after oxidation/Cparent,before oxidation
Details of series [3]: method as in Soto et al. Particulars: ref Soto et al.; cited from earlier work.
In another series the test system is MCF-7 cells. Also noted: method as in Singh et al. 2024. Particulars: ref Singh et al. 2024; cited from earlier work.

Consider `CC(C)(c1ccc(OCC2CO2)cc1)c1ccc(OCC2CO2)cc1` (stereo not drawn) [BADGE, Bisphenol A diglycidyl ether], for which the “stability in phosphate-buffered saline” value in series [1] is “unstable in aqueous solution; also recorded: lower parent concentration and potential contributions from hydrolysis products”. In series [2], the “% Loss” value is -5%, the “Cparent-Ratio Mean” value turned out to be 1.05, the “Cparent-Ratio Rep.1” value is reported as 1.07 and the “Cparent-Ratio Rep.1 %” value is 107.02%. For the same compound, in series [2], the “Cparent-Ratio Rep.2” value was found to be 1.03 and the “Cparent-Ratio Rep.2 %” value was 103.48%.

For the compound `Cc1cc(Cc2cc(C)c(O)c(C)c2)cc(C)c1O` [TMBPF, Bis(3,5-dimethyl-4-hydroxyphenyl)methane], in series [3], the estrogenicity in vivo result is “nonestrogenic in vivo”. For the same compound, in the series on MCF-7 cells, the “estrogenicity in MCF-7 cells” value was “inactive in estrogenicity assays using MCF-7 cells”.
